{
  "source": "paper PMC6158189",
  "about": "“A pharmacological probe identifies cystathionine β-synthase as a new negative regulator for ferroptosis” (Cell Death & Disease, 2018)",
  "key": {"[1]": {"biological_target": "T1, hCBS-FL wild type (293T-CBS WT) (Homo sapiens, UniProt P35520)", "T1 construct": "human CBS or hCSE full-length (CBS-FL or CSE) was subcloned into pGEX-KG, pcDNA3 or pCDH vector; expressed in transfected cells", "T1 sequence (P35520 1-551)": "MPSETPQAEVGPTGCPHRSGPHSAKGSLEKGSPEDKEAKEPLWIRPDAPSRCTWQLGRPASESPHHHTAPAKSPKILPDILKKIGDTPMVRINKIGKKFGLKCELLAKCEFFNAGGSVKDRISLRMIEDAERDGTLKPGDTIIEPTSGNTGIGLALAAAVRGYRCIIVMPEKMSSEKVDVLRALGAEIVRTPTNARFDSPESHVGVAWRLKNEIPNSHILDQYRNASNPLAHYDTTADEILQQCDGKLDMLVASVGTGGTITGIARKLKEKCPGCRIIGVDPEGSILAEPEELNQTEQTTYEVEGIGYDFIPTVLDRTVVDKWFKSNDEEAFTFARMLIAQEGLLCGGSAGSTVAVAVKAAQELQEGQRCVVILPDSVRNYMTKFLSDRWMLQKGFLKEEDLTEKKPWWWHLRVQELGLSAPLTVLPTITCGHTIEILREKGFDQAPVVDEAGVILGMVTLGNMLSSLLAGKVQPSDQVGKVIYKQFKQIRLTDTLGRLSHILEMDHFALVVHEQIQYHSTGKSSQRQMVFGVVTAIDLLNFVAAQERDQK", "test": "H2S in HEK293T cells stably expressing hCBS WT (AzMC probe)", "format": "cell-based", "conditions": "8 h", "description": "HEK293T cells were transiently transfected with empty vector (EV, i and ii), hCBS-FL (iii and iv) or hCSE (v and vi) plasmids, followed by incubation with DMSO (i–iii and v) or 10 μM CH004 (iv and vi) for 8 h before staining with 50 μM AzMC, a H2S-specific probe (“Materials and Methods” section). For larger fluorescent and bright-field images, please see Supplementary Figure 4. The expression levels of hCBS or hCSE in HEK293T cells after transient transfections were determined by western blotting using an anti-CBS antibody (3E1, 1:2000; Abnova) or anti-CSE antibody (1:500, GeneTex). The densities of protein bands for hCBS or hCSE in the blots were quantified with the ImageJ software (National Institutes of Health, Bethesda, MD, USA) and expressed as ratios of respective control (EV group). All immunoblots are representative of at least two independent experiments using GAPDH as the loading control. The fluorescent images of the H2S (blue) were accordingly quantified (“Materials and Methods” section) with ImageJ. […] The DMSO groups of the controls (CTR), which are expressing of hCBS or hCSE, were normalized to 100% and the levels of H2S in CH004-treated or EV group are shown as relative percentages. c, d CH004 dose-dependently suppresses the activity of hCBS WT without affecting the activity of CH004-insensitive mutant. HEK293T cells stably expressing EV (i and ii), hCBS-FL wild type (293T-CBS WT; iii–v) or CBS-FL mutant (293T-CBS Q222A, vi–viii) were treated with DMSO (i–iii and vi), 5 μM CH004 (iv, vii) or 10 μM CH004 (v, viii) for 8 h before staining with the AzMC. For larger fluorescent and bright-field images, please see Supplementary Figures 5–6. […] The DMSO groups of the controls (CTR), which are expressing of hCBS-FL wt or Q222A mutant, were normalized to 100% and the levels of H2S in CH004-treated or EV group are shown as relative percentages. A representative fluorescence image from three independent experiments is shown. Means ± SDS (n = 3). Statistical analyses were performed on the raw data for each group by one-way (b) or two-way (d) ANOVA with Bonferroni post-tests. ***p < 0.001. Bars, 50 μm\nH2S levels in living cells were detected using a H2S-specific fluorescent probe according to a protocol described previously[31],[55]. To measure H2S in transiently transfected HEK293T cells, the cells were seeded on poly-D-Lys-coated coverslips (Thermo Scientific, Waltham, MA, USA) in 12-well plates at a density of ~ 1 × 10^5 cells per well, and hCBS or hCSE plasmids were transiently transfected by X-tremeGENE HP DNA Transfection Reagent according to the manufacturer’s protocol (Roche, Basel, Switzerland). […] After incubation with 50 μM AzMC at 37 °C for 30 min, the cells were washed 4 times with PBS, and the fluorescent images were recorded with excitation by 405 nm laser by using a A1Si (Nikon) confocal microscope. The intensity of the blue fluorescent signals, indicating the amount of H2S, was quantified by ImageJ software (NIH, Bethesda, ML). The H2S signal was then corrected for the background signal detected in HEK293T cells transiently or stably expressing of empty vector (HEK293T-EV) and normalized by the corresponding cell-occupying area and compared with the control (DMSO group, 100%). Similarly, the H2S signal in HepG2 cells was quantified by AzMC staining, corrected for the background signal outside the cells, normalized by the cell area and expressed as percentages of DMSO control (100%). […]"}, "[2]": {"biological_target": "T2, endogenous hCBS in HepG2 cells (Homo sapiens, UniProt P35520)", "T2 construct": "effects of CH004 on the activity of endogenous CBS by incubating with HepG2; endogenous in cells; host or cells: HepG2", "T2 sequence (P35520 1-551)": "T1 sequence (P35520 1-551)", "test": "endogenous H2S in HepG2 cells (AzMC probe)", "format": "cell-based", "conditions": "8 h, HepG2", "description": "Fig. 3 The effect of CH004 on the activity of endogenous hCBS in cells. a CH004 dose-dependently elevates the levels of Hcys in HepG2 and HEK293T cells. HepG2 cells or HEK293T cells were incubated with indicated CH004 or DMSO (control) for 12 h. The amount of total Hcys in cells was measured by ELISA using Axis® Homocysteine EIA kit (IBL, AX51301) (“Materials and Methods” section). […] HepG2 cells were treated with indicated DMSO, CH004 or HA for 8 h before the staining with AzMC probe. The amount of the H2S (blue) was quantified and is shown in (c). Bars, 50 μm. Control (CTR), DMSO group (100%). A representative fluorescence image from three independent experiments is shown. Means ± SDS (n = 3). d CH004 elevates Hcys in the peripheral blood of rats. The total Hcys of the blood samples collected from the anesthetized rats at the 75 min time point (Materials and Methods) were quantified by ELISA (see above). Means ± SDS (n = 6).\nH2S levels in living cells were detected using a H2S-specific fluorescent probe according to a protocol described previously[31],[55]. To measure H2S in transiently transfected HEK293T cells, the cells were seeded on poly-D-Lys-coated coverslips (Thermo Scientific, Waltham, MA, USA) in 12-well plates at a density of ~ 1 × 10^5 cells per well, and hCBS or hCSE plasmids were transiently transfected by X-tremeGENE HP DNA Transfection Reagent according to the manufacturer’s protocol (Roche, Basel, Switzerland). After 24 h, the transfected cells were treated with DMSO or inhibitors for another 8 h, followed by staining with 7-azide-4-methylcoumarin (AzMC; Sigma-Aldrich). Similarly, HEK293T cells stably expressing CBS WT, Q222A mutant or EV were seeded on poly-D-Lys-coated coverslips in 12-well plates for one day before treatment with DMSO or inhibitors for 8 h. After incubation with 50 μM AzMC at 37 °C for 30 min, the cells were washed 4 times with PBS, and the fluorescent images were recorded with excitation by 405 nm laser by using a A1Si (Nikon) confocal microscope. The intensity of the blue fluorescent signals, indicating the amount of H2S, was quantified by ImageJ software (NIH, Bethesda, ML). The H2S signal was then corrected for the background signal detected in HEK293T cells transiently or stably expressing of empty vector (HEK293T-EV) and normalized by the corresponding cell-occupying area and compared with the control (DMSO group, 100%). Similarly, the H2S signal in HepG2 cells was quantified by AzMC staining, corrected for the background signal outside the cells, normalized by the cell area and expressed as percentages of DMSO control (100%).\nTo elucidate the subcellular localization of H2S, HepG2 cells were seeded on poly-D-Lys-coated coverslips in 12-well plates. After treatment with DMSO or inhibitors for 8 h, cells were sequentially incubated with 200 nM Mito-Tracker® Green and 50 μM AzMC for 30 min at 37 °C in PBS, and then fluorescent images were taken using a confocal microscope.\nFigure S9. The effect of AOAA on the level of endogenous H2S in HepG2 cells. […] HepG2 cells were incubated with 0 (DMSO control), 1, 5 or 10 mM AOAA for 8 h before staining with 50 μM AzMC. Upper panels, the overlaid images; middle panels, the corresponding fluorescent images (blue, H2S); the lower panels, the bright-field images. Bars: 50 μm. (B) Quantification of the mean fluorescent density of H2S (blue). The intensity of H2S was accordingly quantified and normalized by correcting for the background signal outside cells. Data was expressed as percentages of the control (DMSO group, 100%). Means ± SDs (n=3). One-way ANOVA with Bonferroni post-tests was used for the analysis. *, p< 0.05; ***, p< 0.001; n.s. no significance. The images are one representative from three independent experiments."}, "[3]": {"system": "H22 mouse liver tumor cells in ICR mice", "conditions": "20 mg/kg/day i.v.", "description": "Fig. 7 CH004 suppresses tumor growth in vivo. a–c CH004 reduces the growth rate of tumors in liver tumor xenograft mice model. Mice bearing liver tumor xenografts were treated with CH004 (10 mg/kg/d), cyclophophamide (CTX, 20 mg/kg/d) or PBS (Vehicle) for 21 days. The tumor volumes were measured every two days during day 6 to day 22 and the data was presented in a (n = 8). […] Mice body weight was measured along with the measurement of tumor volume (n = 8). Means ± SDS. Statistical analyses were performed on the raw data by one-way (c) or two-way ANOVA (a) with Bonferroni post-tests. The significance of the CH004-treated group compared to Vehicle was indicated with $ (a), whereas the comparison of the CTX group to Vehicle was with # (a). $, # or ***p < 0.001\nThe in vivo effect of CH004 on tumor growth was evaluated in a xenograft mice model of liver cancer. The experiment was independently performed by Jiangsu KeyGEN BioTECH Co. LTD (Jiangsu, China) and followed the standard procedures that were established and approved by the local Animal Care and Use Committee. Briefly, H22 mouse liver tumor cells were intraperitoneal injected into female ICR mice (SLAC Laboratory Animal Co. Ltd, Shanghai, China). 8 days later, mice with distended abdomen were killed, and the ascites was collected, washed and resuspended with PBS. 0.1 ml cell suspension with a density of 1 × 10^7/ml was subcutaneously injected into the right dorsum of ICR female mice (~20 g). The mice bearing H22 tumor cells were then randomized into groups (n = 8) on the following day after the implantation. Then, the mice were injected via a tail vein (i.v.) with PBS, CH004 (10 mg/kg) or cyclophosphamide (CTX, a known anticancer drug; 20 mg/kg) once per day and for 21 days. Tumor sizes were measured every 2 days starting from the day 6 using a caliper, and tumor volume was calculated using the formula V = length × width^2 × π / 6. The body weights of mice were recorded under the same conditions. The mice were sacrificed on day 22, and the tumors were taken out and weighted."}},
  "data": [
    {"smiles": "NOCC(=O)O", "note": "[AOAA, aminooxyacetic acid, reference compound]", "values": [
      {"measurement": "effect on production of H2S", "setting": "[1]; 1 mM, HEK293T stably expressing hCBS", "value": "cannot suppress"},
      {"measurement": "decrease in cellular H2S", "setting": "[1]; 10 mM, HEK293T stably expressing hCBS", "value": "≤ 30", "unit": "%"},
      {"measurement": "H2S production", "setting": "[1]; 1, 5 or 10 mM, 293T-CBS WT", "value": "weakly inhibits"},
      {"measurement": "effect on production of H2S", "setting": "[2]; 1 mM", "value": "cannot suppress"},
      {"measurement": "decrease in cellular H2S", "setting": "[2]; 10 mM", "value": "≤ 30", "unit": "%"},
      {"measurement": "production of endogenous H2S", "setting": "[2]; 1, 5 or 10 mM", "value": "impotently decreases"}
    ]},
    {"smiles": "O=P1(N(CCCl)CCCl)NCCCO1", "note": "(centres unmarked) [CTX, cyclophosphamide, reference compound]", "values": [
      {"measurement": "reduction of tumor volume or weight", "setting": "[3]; 21-day treatment", "value": "more than half"},
      {"measurement": "effect on total body weight", "setting": "[3]; 21 days", "value": "did not substantially affect"}
    ]}
  ]
}
